Measurements: ChEMBL document CHEMBL1201862, “PubChem BioAssay data set” (2004)
Active and inactive are the calls of the source.

Key:
cells [1] = format: functional
[2] = biological target: T1, Rac GTPase-activating protein 1 (Homo sapiens, UniProt Q9H0H5); test: blockers of MgcRacGAP-driven Rac1 GTP hydrolysis – biochemical, ADP Hunter fluorescence, primary and confirmatory, confirmation (AID 624330); format: functional
T1 sequence (Q9H0H5 whole entry): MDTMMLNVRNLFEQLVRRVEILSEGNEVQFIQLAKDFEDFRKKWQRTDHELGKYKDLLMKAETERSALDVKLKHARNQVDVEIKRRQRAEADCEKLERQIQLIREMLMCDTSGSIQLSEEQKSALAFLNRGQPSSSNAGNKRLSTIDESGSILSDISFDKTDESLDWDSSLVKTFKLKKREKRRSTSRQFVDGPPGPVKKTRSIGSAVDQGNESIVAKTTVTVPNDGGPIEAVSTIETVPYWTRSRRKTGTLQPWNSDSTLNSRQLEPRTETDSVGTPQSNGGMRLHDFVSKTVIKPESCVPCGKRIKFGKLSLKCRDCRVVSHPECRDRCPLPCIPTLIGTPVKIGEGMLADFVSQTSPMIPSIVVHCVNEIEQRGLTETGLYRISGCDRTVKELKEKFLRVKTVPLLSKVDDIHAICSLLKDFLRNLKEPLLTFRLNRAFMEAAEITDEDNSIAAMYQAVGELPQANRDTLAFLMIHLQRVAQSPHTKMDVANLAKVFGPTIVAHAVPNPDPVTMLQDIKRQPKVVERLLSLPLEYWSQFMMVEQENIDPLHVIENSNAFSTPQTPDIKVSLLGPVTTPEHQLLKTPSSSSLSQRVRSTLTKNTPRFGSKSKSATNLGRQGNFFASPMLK

[3] = biological target: T2, Zinc finger protein mex-5 (Caenorhabditis elegans, UniProt Q9XUB2); test: potency of MEX-5 RNA-binding blockers – biochemical, C. elegans, fluorescence polarization, dose response (AID 1960)
T2 sequence (Q9XUB2 whole entry): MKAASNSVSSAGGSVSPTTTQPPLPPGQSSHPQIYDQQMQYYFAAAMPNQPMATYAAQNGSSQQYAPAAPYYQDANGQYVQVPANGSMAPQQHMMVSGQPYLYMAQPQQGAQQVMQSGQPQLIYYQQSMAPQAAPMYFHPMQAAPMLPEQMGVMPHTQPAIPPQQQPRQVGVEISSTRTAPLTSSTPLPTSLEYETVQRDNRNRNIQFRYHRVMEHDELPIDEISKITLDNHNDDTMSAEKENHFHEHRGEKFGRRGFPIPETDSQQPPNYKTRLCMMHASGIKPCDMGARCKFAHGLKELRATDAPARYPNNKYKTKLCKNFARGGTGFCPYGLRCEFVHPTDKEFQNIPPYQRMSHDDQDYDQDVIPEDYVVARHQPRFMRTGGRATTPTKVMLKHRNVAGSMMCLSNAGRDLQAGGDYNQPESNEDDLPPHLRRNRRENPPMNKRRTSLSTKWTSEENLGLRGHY

[4] = biological target: T3, RNA-binding protein pos-1 (Caenorhabditis elegans, UniProt G5EF15); test: disruptors of C. elegans POS-1 RNA interaction – biochemical, fluorescence polarization, dose response (AID 1964);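 also: purified POS-1 fused to maltose binding protein made in E. coli; potency of compounds blocking POS-1 binding to fluorescent RNA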
T3 sequence (G5EF15 whole entry): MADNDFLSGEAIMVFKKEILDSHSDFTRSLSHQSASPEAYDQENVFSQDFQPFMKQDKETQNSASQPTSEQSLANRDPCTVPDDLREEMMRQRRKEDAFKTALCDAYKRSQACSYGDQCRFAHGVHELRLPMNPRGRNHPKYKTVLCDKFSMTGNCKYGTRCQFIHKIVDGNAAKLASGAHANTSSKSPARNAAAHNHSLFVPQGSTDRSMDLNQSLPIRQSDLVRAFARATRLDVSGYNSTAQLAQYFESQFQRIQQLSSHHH

[5] = biological target: T4, Corticotropin-releasing factor receptor 2/Corticotropin-releasing factor-binding protein (Homo sapiens, UniProt P24387+Q13324); test: activators of CRF receptor 2 with binding protein – uHTS hits, confirmation (AID 602473); format: functional; conditions: read-out: EC50_Mean
T4 sequence (Q13324 whole entry): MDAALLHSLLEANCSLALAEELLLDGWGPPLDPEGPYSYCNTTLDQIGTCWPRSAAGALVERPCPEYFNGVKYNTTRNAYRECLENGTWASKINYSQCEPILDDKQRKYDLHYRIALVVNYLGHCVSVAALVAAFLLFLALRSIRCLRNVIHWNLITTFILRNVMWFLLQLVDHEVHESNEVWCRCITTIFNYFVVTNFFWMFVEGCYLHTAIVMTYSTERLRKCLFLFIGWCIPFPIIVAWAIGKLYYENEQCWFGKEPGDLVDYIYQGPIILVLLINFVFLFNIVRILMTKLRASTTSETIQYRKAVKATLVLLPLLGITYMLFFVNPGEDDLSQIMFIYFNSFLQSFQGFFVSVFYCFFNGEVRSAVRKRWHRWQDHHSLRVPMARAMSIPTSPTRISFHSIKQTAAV
T4 sequence (P24387 whole entry): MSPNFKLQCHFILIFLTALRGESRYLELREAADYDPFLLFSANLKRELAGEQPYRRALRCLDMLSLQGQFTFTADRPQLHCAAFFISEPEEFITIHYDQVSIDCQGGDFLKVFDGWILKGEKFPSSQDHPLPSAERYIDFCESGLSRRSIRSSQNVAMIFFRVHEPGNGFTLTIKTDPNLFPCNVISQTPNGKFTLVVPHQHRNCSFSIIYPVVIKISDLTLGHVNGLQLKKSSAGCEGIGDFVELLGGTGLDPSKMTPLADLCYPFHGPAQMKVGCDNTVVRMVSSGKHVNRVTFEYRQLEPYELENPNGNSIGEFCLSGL

cells [6] = format: functional, cell-based
cells [7] = format: functional, cell-based; remark: listed apart in the source
Large T antigen = Large T antigen (Simian virus 40, UniProt P03070); format: functional, Betapolyomavirus macacae;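 also: Confirmatory-stage PubChem screen for compounds that inhibit SV40 T antigen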
Sequence of Large T antigen (P03070 whole entry): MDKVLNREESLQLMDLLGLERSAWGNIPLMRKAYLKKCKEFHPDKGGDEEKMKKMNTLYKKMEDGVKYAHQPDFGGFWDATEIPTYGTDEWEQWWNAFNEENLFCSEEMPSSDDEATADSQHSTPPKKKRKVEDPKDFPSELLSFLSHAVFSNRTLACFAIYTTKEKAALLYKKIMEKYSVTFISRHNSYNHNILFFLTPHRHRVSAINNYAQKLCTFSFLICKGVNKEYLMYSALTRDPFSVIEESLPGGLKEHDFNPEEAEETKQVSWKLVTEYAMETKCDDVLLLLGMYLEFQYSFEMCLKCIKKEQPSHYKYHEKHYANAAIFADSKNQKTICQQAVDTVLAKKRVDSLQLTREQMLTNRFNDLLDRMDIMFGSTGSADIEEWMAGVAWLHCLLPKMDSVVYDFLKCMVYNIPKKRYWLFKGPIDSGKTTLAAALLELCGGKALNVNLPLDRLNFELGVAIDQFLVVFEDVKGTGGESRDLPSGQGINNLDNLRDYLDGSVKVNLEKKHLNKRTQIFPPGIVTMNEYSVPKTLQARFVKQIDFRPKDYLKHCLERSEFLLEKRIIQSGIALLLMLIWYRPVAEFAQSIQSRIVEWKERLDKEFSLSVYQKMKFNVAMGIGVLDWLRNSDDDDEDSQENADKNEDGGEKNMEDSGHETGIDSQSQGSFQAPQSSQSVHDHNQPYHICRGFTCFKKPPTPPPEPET

[8] = biological target: FAD-linked sulfhydryl oxidase ALR (Homo sapiens, UniProt P55789); test: ALR-catalysed DTT oxidation blockers – biochemical, H2O2 detection, luminescence, cherry-pick, dose response (AID 493248)
Sequence of FAD-linked sulfhydryl oxidase ALR (P55789 whole entry): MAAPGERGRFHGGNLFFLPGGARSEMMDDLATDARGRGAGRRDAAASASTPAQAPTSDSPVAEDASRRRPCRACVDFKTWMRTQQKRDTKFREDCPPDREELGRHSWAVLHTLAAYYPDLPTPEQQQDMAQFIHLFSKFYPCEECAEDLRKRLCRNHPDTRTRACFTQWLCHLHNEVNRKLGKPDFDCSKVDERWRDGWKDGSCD

[9] = fluconazole-exposed Candida albicans growth modulators – fluorescence, retest, confirmation (AID 2467); format: functional, cell-based
[10] = NIH-3T3 fibroblast cytotoxicity, dose response, cytotoxicity control, cell-based, fluorescence, Alamar Blue, secondary assay (AID 2327); format: functional;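 also: NIH-3T3 mouse fibroblasts cultured with fluconazole at 8 µg/mL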
Nonstructural protein 1 = Nonstructural protein 1 (Influenza A virus, UniProt Q194T2); format: functional, Influenza A virus (A/California/07/2009(H1N1))
Sequence of Nonstructural protein 1 (Q194T2 whole entry): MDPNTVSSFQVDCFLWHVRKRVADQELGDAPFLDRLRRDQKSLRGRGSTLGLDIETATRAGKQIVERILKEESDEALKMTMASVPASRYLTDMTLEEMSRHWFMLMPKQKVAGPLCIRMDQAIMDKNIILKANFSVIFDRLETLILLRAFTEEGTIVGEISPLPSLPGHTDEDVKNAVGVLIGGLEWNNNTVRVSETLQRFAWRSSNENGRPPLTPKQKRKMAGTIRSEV

Cytochrome P450 3A4 = Cytochrome P450 3A4 (Homo sapiens, UniProt P08684);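 also: CYP3A4 tested as one member of a cytochrome P450 panel screen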
Sequence of Cytochrome P450 3A4 (P08684 whole entry): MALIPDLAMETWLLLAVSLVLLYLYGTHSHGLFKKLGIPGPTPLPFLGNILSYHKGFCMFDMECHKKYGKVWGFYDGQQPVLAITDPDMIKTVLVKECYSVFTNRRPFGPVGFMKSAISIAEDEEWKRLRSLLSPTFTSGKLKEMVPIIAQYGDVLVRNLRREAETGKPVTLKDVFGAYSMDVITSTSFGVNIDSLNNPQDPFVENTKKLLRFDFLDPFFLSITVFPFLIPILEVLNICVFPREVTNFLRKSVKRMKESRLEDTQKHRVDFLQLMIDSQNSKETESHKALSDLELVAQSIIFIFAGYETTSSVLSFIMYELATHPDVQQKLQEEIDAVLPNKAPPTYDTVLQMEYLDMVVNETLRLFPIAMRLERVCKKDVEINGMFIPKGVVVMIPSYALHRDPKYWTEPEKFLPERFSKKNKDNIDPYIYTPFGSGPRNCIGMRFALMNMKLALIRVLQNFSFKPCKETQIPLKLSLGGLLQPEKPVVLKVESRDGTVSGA

Cytochrome P450 2C9 = Cytochrome P450 2C9 (Homo sapiens, UniProt P11712)
Sequence of Cytochrome P450 2C9 (P11712 whole entry): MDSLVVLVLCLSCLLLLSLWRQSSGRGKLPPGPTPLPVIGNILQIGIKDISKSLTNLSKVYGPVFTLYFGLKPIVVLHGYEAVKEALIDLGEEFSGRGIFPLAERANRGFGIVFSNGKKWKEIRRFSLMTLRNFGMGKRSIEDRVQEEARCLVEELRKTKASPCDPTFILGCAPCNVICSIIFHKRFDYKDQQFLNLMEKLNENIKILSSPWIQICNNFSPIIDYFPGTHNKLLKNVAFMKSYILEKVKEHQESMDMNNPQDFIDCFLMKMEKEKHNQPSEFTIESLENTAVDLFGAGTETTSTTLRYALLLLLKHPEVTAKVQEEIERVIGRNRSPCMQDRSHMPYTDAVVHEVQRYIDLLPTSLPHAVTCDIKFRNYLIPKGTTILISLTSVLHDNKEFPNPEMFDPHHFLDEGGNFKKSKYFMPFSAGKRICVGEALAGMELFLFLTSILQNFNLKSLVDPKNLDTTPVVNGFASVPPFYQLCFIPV

Cytochrome P450 2C19 = Cytochrome P450 2C19 (Homo sapiens, UniProt P33261); test: Cytochrome panel assay with activity outcomes. Panel member name: p450-cyp2c19 Compounds with AC50 equal or less than 10 uM are considered active; format: functional
Sequence of Cytochrome P450 2C19 (P33261 whole entry): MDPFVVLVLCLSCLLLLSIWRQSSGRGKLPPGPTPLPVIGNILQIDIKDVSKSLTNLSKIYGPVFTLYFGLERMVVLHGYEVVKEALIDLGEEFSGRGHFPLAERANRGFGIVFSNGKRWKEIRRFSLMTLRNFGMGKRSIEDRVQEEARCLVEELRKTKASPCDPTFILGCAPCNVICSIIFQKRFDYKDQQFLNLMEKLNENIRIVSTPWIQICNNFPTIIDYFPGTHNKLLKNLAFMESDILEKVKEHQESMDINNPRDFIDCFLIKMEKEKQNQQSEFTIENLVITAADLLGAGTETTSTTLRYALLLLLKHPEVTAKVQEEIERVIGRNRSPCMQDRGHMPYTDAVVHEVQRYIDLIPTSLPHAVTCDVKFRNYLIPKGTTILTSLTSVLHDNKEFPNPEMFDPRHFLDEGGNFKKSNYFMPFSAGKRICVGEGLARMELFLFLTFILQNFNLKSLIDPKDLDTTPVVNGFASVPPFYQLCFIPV

**Q.** For `O=C(COC(=O)COc1ccc(Nc2ccccc2)cc1)NCc1ccco1`, which IC50 (cells [1]) is on record?
**A.** The IC50 was 4.72 µM (active).

**Q.** What about the IC50 [2] of the same compound?
**A.** The IC50 was 77.4 µM (active).

**Q.** Which EC50 [3] does the source give for `CCn1nc(C)c(/C=C2\CCCC3=C2OC(N)=C(C#N)C3c2c(C)nn(CC)c2C)c1C` (stereo not drawn) here?
**A.** The EC50 was 51.8 µM (active).

**Q.** And the EC50 [4]?
**A.** The EC50 was 36 µM (active).

**Q.** With `CCOc1ccc(-c2nn(-c3ccccc3)cc2/C=C2\SC(=S)N(C3CCS(=O)(=O)C3)C2=O)cc1` (stereo not drawn) as the compound, how does the EC50 [3] read?
**A.** The EC50 was > 300 µM (not active).

**Q.** And the EC50 [5]?
**A.** Its EC50 is 13.1 µM (active).

**Q.** And the EC50 [4]?
**A.** The EC50 was > 300 µM (not active).

**Q.** Which results are given for `COC(=O)/C(C#N)=C/c1c(N2CCN(Cc3ccc4c(c3)OCO4)CC2)nc2c(C)cccn2c1=O`?
**A.** EC50 (cells [6]): > 350 µM (not active); EC50 (cells [7]): > 350 µM (not active)

**Q.** With `Cc1cc(/C=C(\C#N)C(=O)Nc2ccccc2)c(C)n1-c1ccc(C(=O)O)cc1` as the compound, how does the EC50 [3] read?
**A.** Its EC50 is > 300 µM (not active).

**Q.** What about the EC50 [4] of the same compound?
**A.** Its EC50 is > 300 µM (not active).

**Q.** For `N=C1/C(=C\c2ccc(O)cc2)C(=O)N=C2SC(CC(=O)N3CCCCC3)=NN12`, which IC50 (Large T antigen) is on record?
**A.** The IC50 was 14.2 µM (active).

**Q.** Which IC50 (cells [1]) does the source give for `O=C(COc1ccc(Cl)cc1)Nc1ccc(Cl)cn1` here?
**A.** The IC50 was 30.3 µM (active).

**Q.** What does the source list for `C=CCn1c(=S)[nH]c2nc3c(cc2c1=O)COC(C)(C)C3`?
**A.** EC50 [3]: > 300 µM (not active); EC50 [4]: > 300 µM (not active)

**Q.** Which IC50 (cells [1]) does the source give for `CCn1c(-c2ccco2)nc2ccccc21` here?
**A.** Its IC50 is > 50 µM (active).

**Q.** Which IC50 (Large T antigen) does the source give for `COc1cc(/C=N\NC(=O)CC(=O)NCCc2ccccc2)ccc1O` here?
**A.** Its IC50 is 7.57 µM (active).

**Q.** And the IC50 [2]?
**A.** The IC50 was 27.4 µM (active).

**Q.** And the AC50 [8]?
**A.** Its AC50 is 1.7 µM (active).

**Q.** With `Cc1ccnc(NC(c2cccnc2)c2ccc3cccnc3c2O)c1` (stereo not drawn) as the compound, how does the EC50 [9] read?
**A.** The EC50 was > 38 µM (not active).

**Q.** What about the EC50 (cells [6]) of the same compound?
**A.** The EC50 was > 350 µM (not active).

**Q.** What about the EC50 (cells [7]) of the same compound?
**A.** Its EC50 is 200 µM (active).

**Q.** What about the EC50 [10] of the same compound?
**A.** The EC50 was 46.7 µM (active).

**Q.** And the IC50 (Nonstructural protein 1)?
**A.** The IC50 was 8.52 µM (active).

**Q.** With `COc1cc(C2C(C#N)=C(N)OC3=C2C(=O)CCC3)cc(OC)c1OC(=O)N1CCOCC1` (stereo not drawn) as the compound, how does the AC50 (Cytochrome P450 3A4) read?
**A.** Its AC50 is 25.1 µM (inconclusive).

**Q.** And the AC50 (Cytochrome P450 2C9)?
**A.** Its AC50 is 22.4 µM (inconclusive).

**Q.** What about the EC50 [3] of the same compound?
**A.** Its EC50 is > 300 µM (not active).

**Q.** What about the EC50 [4] of the same compound?
**A.** Its EC50 is > 300 µM (not active).

**Q.** For `CN=C(S)Nc1ccc(Nc2ccccc2)cc1`, which IC50 (Large T antigen) is on record?
**A.** Its IC50 is 12.3 µM (active).

**Q.** And the IC50 [2]?
**A.** Its IC50 is 64.6 µM (active).

**Q.** Which results are given for `O=C(CN1CCCCC1)Nc1nnc(-c2ccc([N+](=O)[O-])cc2)s1`?
**A.** AC50 (Cytochrome P450 2C19): inconclusive; IC50 (cells [1]): 29.9 µM (active); AC50 (Cytochrome P450 2C9): 17.8 µM (inconclusive)
